This is an account of results in ChEMBL document CHEMBL3217562, “N-Substituted salicylamides as selective malaria parasite dihydroorotate dehydrogenase inhibitors” (Medchemcomm, 2011).

Test [1] has as its target T1, Dihydroorotate dehydrogenase (Plasmodium falciparum) (UniProt Q54A96).
T1 sequence (whole entry): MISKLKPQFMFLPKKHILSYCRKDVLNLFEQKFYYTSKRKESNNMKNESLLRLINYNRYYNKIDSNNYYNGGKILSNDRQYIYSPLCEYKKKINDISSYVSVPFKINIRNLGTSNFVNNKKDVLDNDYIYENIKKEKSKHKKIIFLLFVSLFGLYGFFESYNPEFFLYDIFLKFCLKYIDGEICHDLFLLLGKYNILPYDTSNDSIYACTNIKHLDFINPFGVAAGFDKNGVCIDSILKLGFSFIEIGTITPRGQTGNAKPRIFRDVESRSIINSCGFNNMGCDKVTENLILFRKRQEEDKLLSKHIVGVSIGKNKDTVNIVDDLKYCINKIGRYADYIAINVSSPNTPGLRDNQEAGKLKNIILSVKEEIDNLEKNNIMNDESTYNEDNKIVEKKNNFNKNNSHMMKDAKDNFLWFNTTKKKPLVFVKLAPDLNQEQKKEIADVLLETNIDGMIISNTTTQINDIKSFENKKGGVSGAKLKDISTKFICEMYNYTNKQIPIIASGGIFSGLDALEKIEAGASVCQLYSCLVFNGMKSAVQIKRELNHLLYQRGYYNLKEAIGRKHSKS
As to the kind of experiment: Inhibition of N-terminal truncated Plasmodium falciparum recombinant DHODH assessed as ubiquinone reduction to 2,6-dichloroindophenol at 100 uM by spectrophotometric analysis relative to control.

Test [2] addresses T1, Dihydroorotate dehydrogenase (Plasmodium falciparum). The test is described as follows: Inhibition of N-terminal truncated Plasmodium falciparum recombinant DHODH assessed as ubiquinone reduction to 2,6-dichloroindophenol at 10 uM by spectrophotometric analysis relative to control.
The target of test [3] is T2, Dihydroorotate dehydrogenase (quinone), mitochondrial (Homo sapiens, UniProt Q02127). The test is described as follows: Inhibition of N-terminal truncated human recombinant DHODH assessed as ubiquinone reduction to 2,6-dichloroindophenol at 10 uM by spectrophotometric analysis relative to control.
In test [4] the target is T3, Dihydroorotate dehydrogenase (Plasmodium falciparum, UniProt Q54A96).
T3 sequence (Q54A96 whole entry): T1 sequence (whole entry)
As to the kind of experiment: Inhibition of N-terminal truncated Plasmodium falciparum recombinant DHODH assessed as ubiquinone reduction to 2,6-dichloroindophenol by spectrophotometric analysis.

For test [5], the target named is T2, Dihydroorotate dehydrogenase (quinone), mitochondrial. As to the kind of experiment: Inhibition of N-terminal truncated human recombinant DHODH assessed as ubiquinone reduction to 2,6-dichloroindophenol by spectrophotometric analysis.
The nature of test [6]: Selectivity ratio of IC50 for N-terminal truncated human recombinant DHODH to IC50 for N-terminal truncated Plasmodium falciparum recombinant DHODH.
The next test concerns Plasmodium falciparum. As to the kind of experiment: Antiplasmodial activity against Plasmodium falciparum 3D7 after 48 hrs by [3H]-hypoxanthine incorporation assay. The class given is functional, organism-based.

T2 sequence (Q02127 whole entry, the tested form may be a part): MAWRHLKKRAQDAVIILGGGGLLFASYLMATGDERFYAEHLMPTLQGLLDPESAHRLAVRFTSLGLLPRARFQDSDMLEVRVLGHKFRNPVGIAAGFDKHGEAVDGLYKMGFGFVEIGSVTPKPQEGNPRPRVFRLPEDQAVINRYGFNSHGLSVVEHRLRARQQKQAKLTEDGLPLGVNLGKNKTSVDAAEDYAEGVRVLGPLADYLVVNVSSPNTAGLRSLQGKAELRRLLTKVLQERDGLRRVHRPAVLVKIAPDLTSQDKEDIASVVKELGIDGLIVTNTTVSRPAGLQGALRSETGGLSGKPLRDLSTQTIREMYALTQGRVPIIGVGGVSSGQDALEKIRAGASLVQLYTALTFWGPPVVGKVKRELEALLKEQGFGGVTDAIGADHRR

Broadly, the inhibition is the change of the read-out against control, counted positive when it falls. For `O=C(NCCc1ccccc1)c1ccccc1O`, the results for the inhibition in test [1], in test [2] and in test [3] were 53%, 21% and 6%, respectively.
As usually defined, the IC50 is the point on the concentration scale where inhibition reaches its midpoint. For the compound `O=C(NCC(c1ccccc1)c1ccccc1)c1ccc(Cl)cc1O`, the IC50 in test [4] was 10.3 µM; in test [5], over 200 µM.
With `CN(CCc1ccccc1)C(=O)c1ccccc1O`, the inhibition in test [2] and in test [3] was 3% throughout.
Take `O=C(NCCc1ccccc1)c1ccc(Cl)cc1O`: the inhibition in test [2] was 16%; in test [3], 8%.
In the same order, the values of `O=C(NCc1ccccc1)c1ccccc1O` are 16% and 4%.
On to `O=C(NCCC(c1ccccc1)c1ccccc1)c1ccccc1O`, for which the inhibition turned out to be 22% in test [2] and 21% in test [3].
On to `O=C(NCC(c1ccccc1)c1ccccc1)c1ccccc1O`, for which the IC50 was 21.2 µM in test [4] and over 200 µM in test [5]. For the same compound, the inhibition was determined as 38% in test [2] and 4% in test [3].
As to `O=C(NCC(c1ccccc1)c1ccccc1)c1ccc(CO)cc1O`, the values for the IC50 in test [4] and in test [5] were 46.2 µM and over 200 µM, respectively.
Consider `O=C(NC(c1ccccc1)c1ccccc1)c1ccccc1O`, for which the inhibition turned out to be 0% in test [2] and 6% in test [3].
Turning to `COc1ccc(O)c(C(=O)NCC(c2ccccc2)c2ccccc2)c1`, the IC50 in test [4] is 18.1 µM; in test [5] it was over 200 µM.
Taken in the same sequence, the figures for `O=C(NCC(c1ccccc1)c1ccccc1)c1cccc(CO)c1O` were over 100 µM and over 200 µM.
As to `O=C(NCC(c1ccccc1)c1ccccc1)c1c(O)cccc1F`, in test [4], the IC50 is over 125 µM.
`O=C(NCCCc1ccccc1)c1ccccc1O`: the inhibition in test [2] worked out at 39%; in test [3] it was 7%.
Turning to `COc1ccc(C(=O)NCC(c2ccccc2)c2ccccc2)c(O)c1`, the IC50 in test [4] was 14 µM; in test [5], over 200 µM.
Regarding `O=Cc1ccc(C(=O)NCC(c2ccccc2)c2ccccc2)c(O)c1`, the IC50 in test [4] was 16.5 µM; in test [5] it was over 200 µM.
As to `Cc1ccc(O)c(C(=O)NCCc2ccccc2)c1`, the inhibition in test [2] was determined as 16%; in test [3], 4%.
In the same order, the values of `O=C(NCCc1ccccc1)c1cccc(Cl)c1O` are 10% and 8%.
Regarding `COc1cccc(C(=O)NCC(c2ccccc2)c2ccccc2)c1O`, the IC50 in test [4] was over 500 µM; in test [5], over 200 µM.
For `Cc1ccc(O)c(C(=O)NCC(c2ccccc2)c2ccccc2)c1`, the IC50 in test [4] is 14.4 µM; in test [5], over 200 µM.
In general, EC50 refers to the concentration needed to bring the measured effect to its halfway point. Read a high EC50 as a less potent agent. Take `O=C(NCC(c1ccccc1)c1ccccc1)c1cc(CO)ccc1O`: the IC50 in test [4] is 8 µM; in test [5], over 200 µM. In addition, in test [6], the Ratio IC50 is 18. The compound also returned a half-maximal effective concentration (EC50) with Plasmodium falciparum of 53 µM.
As to `O=C(NCC(c1ccccc1)c1ccccc1)c1cc(Cl)cc(Cl)c1O`, the IC50 in test [4] is 7 µM; in test [5], over 200 µM. Moreover, the Ratio IC50 in test [6] is over 20. Besides, the midpoint of the response in the test on Plasmodium falciparum, the EC50, lay at 170 µM.
As to `O=C(NCCc1ccccc1)c1cc(Cl)ccc1O`, the inhibition in test [2] amounted to 23%; in test [3] it was 6%.
With `COc1cccc(O)c1C(=O)NCC(c1ccccc1)c1ccccc1`, the IC50 in test [4] was over 125 µM.
On to `COc1cccc(C(=O)NCCc2ccccc2)c1O`, for which the inhibition in test [2] was determined as 7%; in test [3] it was 8%.
For `O=C(NCC(c1ccccc1)c1ccccc1)c1cc(Cl)ccc1O`, the figures for the IC50 in test [4] and in test [5] were 9.1 µM and over 200 µM, respectively. In addition, in test [6], the Ratio IC50 is 18. Moreover, the EC50 with Plasmodium falciparum was 23 µM.
With `O=C(NCC(c1ccccc1)c1ccccc1)c1cccc(Cl)c1O`, the IC50 in test [4] was 44.1 µM; in test [5], over 200 µM.
Turning to `O=C(NCCc1ccccc1)c1c(O)cccc1O`, the results for the inhibition in test [2] and in test [3] were 17% and 15%, respectively.
For `O=C(NCC(c1ccccc1)c1ccccc1)c1cccc(F)c1O`, the results for the IC50 in test [4] and in test [5] were 26.1 µM and over 200 µM, respectively.
For `O=C(NCCc1ccccc1)c1cc([N+](=O)[O-])ccc1O`, the results for the inhibition in test [2] and in test [3] were 5% and 26%, respectively.
Consider `O=C(NCC(c1ccccc1)c1ccccc1)c1ccc(F)c(F)c1O`, for which the IC50 came to 9.9 µM in test [4] and 130 µM in test [5]. In test [6], the Ratio IC50 came to 18. The compound also came in with an EC50 in the test with Plasmodium falciparum of 100 µM.
Take `COc1ccc(C(=O)NCCc2ccccc2)c(O)c1`: the inhibition in test [2] is 9%; in test [3], 5%.
With `COc1ccc(O)c(C(=O)NCCc2ccccc2)c1`, the inhibition in test [2] and in test [3] was 8% in each case.
Regarding `CC(CNC(=O)c1ccccc1O)c1ccccc1` (racemic), the inhibition stood at 20% in test [2] and 4% in test [3].
With `O=C(NCC(c1ccccc1)c1ccccc1)c1cc(Br)ccc1O`, the IC50 was 10.8 µM in test [4] and over 200 µM in test [5].
